Reference: the supplement of paper PMC10307832

Tests used:
Experiment in all cases: relative viability (nuclei count vs DMSO), 5 days (fraction); higher = more cells survive
NCI-H1975 = tested on: NCI-H1975
How it was run: (§1)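 One day after seeding in 1536-well plates, lung cancer cell lines were dosed by pin tool. Dosing was either single-drug or a fixed anchor-drug dose plus five library-drug doses (not always all listed) in √10 steps. After 5 days, nuclei were stained in one fix-and-stain step and counted on 4× images, and relative viability is the nuclei count of treated wells over that of vehicle wells, given as the median of duplicate plates.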

NCI-H1944 = tested on: NCI-H1944
How it was run: as §1

NCI-H2126 = tested on: NCI-H2126
How it was run: as §1

NCI-H1666 = tested on: NCI-H1666
How it was run: as §1

LCLC-97TM1 = tested on: LCLC-97TM1
How it was run: as §1

EMC-BAC-2 = tested on: EMC-BAC-2
How it was run: as §1

NCI-H1993 = tested on: NCI-H1993
How it was run: as §1

NCI-H1755 = tested on: NCI-H1755
How it was run: as §1

NCI-H2170 = tested on: NCI-H2170
How it was run: as §1

NCI-H520 = tested on: NCI-H520
How it was run: as §1

NCI-H1793 = tested on: NCI-H1793
How it was run: as §1

NCI-H2009 = tested on: NCI-H2009
How it was run: as §1

NCI-H460 = tested on: NCI-H460
How it was run: as §1

ABC-1 = tested on: ABC-1
How it was run: as §1

NCI-H727 = tested on: NCI-H727
How it was run: as §1

PC-3 [JPC-3] = tested on: PC-3 [JPC-3]
How it was run: as §1

NCI-H1355 = tested on: NCI-H1355
How it was run: as §1

NCI-H2347 = tested on: NCI-H2347
How it was run: as §1

SW 1573 = tested on: SW 1573
How it was run: as §1

PC-14 = tested on: PC-14
How it was run: as §1

SK-LU-1 = tested on: SK-LU-1
How it was run: as §1

NCI-H441 = tested on: NCI-H441
How it was run: as §1

NCI-H647 = tested on: NCI-H647
How it was run: as §1

SMILES: Cc1cnc(-c2cnc(NCCNc3ccc(C#N)cn3)nc2-c2ccc(Cl)cc2Cl)[nH]1 + O=C(c1cc(Cc2n[nH]c(=O)c3ccccc23)ccc1F)N1CCN(C(=O)C2CC2)CC1 [Olaparib] (partner 8 µM)
- relative viability (NCI-H1975; first compound 0.08 µM): 0.759
- relative viability (NCI-H1975; first compound 0.253 µM): 0.715
- relative viability (NCI-H1975; first compound 0.8 µM): 0.672
- relative viability (NCI-H1975; first compound 2.53 µM): 0.502
- relative viability (NCI-H1944; first compound 0.08 µM): 0.446
- relative viability (NCI-H1944; first compound 0.8 µM): 0.42
- relative viability (NCI-H1944; first compound 2.53 µM): 0.413
- relative viability (NCI-H2126; first compound 0.08 µM): 0.922
- relative viability (NCI-H2126; first compound 0.253 µM): 0.908
- relative viability (NCI-H2126; first compound 0.8 µM): 0.89
- relative viability (NCI-H2126; first compound 2.53 µM): 0.898
- relative viability (NCI-H1666; first compound 0.08 µM): 0.775
- relative viability (NCI-H1666; first compound 0.253 µM): 0.732
- relative viability (NCI-H1666; first compound 0.8 µM): 0.765
- relative viability (NCI-H1666; first compound 2.53 µM): 0.781
- relative viability (LCLC-97TM1; first compound 0.08 µM): 0.379
- relative viability (LCLC-97TM1; first compound 0.253 µM): 0.36
- relative viability (LCLC-97TM1; first compound 0.8 µM): 0.417
- relative viability (LCLC-97TM1; first compound 2.53 µM): 0.316
- relative viability (EMC-BAC-2; first compound 0.08 µM): 0.498
- relative viability (EMC-BAC-2; first compound 0.253 µM): 0.466
- relative viability (EMC-BAC-2; first compound 0.8 µM): 0.504
- relative viability (EMC-BAC-2; first compound 2.53 µM): 0.397
- relative viability (NCI-H1993; first compound 0.08 µM): 1.1
- relative viability (NCI-H1993; first compound 0.253 µM): 0.855
- relative viability (NCI-H1993; first compound 0.8 µM): 1.13
- relative viability (NCI-H1993; first compound 2.53 µM): 1.2
- relative viability (NCI-H1755; first compound 0.08 µM): 0.941
- relative viability (NCI-H1755; first compound 0.253 µM): 0.819
- relative viability (NCI-H1755; first compound 0.8 µM): 0.804
- relative viability (NCI-H1755; first compound 2.53 µM): 0.869
- relative viability (NCI-H2170; first compound 0.08 µM): 0.601
- relative viability (NCI-H2170; first compound 0.8 µM): 0.518
- relative viability (NCI-H2170; first compound 2.53 µM): 0.519
- relative viability (NCI-H520; first compound 0.08 µM): 0.366
- relative viability (NCI-H520; first compound 0.253 µM): 0.3
- relative viability (NCI-H520; first compound 0.8 µM): 0.354
- relative viability (NCI-H520; first compound 2.53 µM): 0.311
- relative viability (NCI-H1793; first compound 0.08 µM): 1.01
- relative viability (NCI-H1793; first compound 0.253 µM): 0.755
- relative viability (NCI-H1793; first compound 0.8 µM): 0.957
- relative viability (NCI-H1793; first compound 2.53 µM): 0.867
- relative viability (NCI-H2009; first compound 0.08 µM): 0.746
- relative viability (NCI-H2009; first compound 0.253 µM): 0.661
- relative viability (NCI-H2009; first compound 0.8 µM): 0.697
- relative viability (NCI-H2009; first compound 2.53 µM): 0.605
- relative viability (NCI-H460; first compound 0.08 µM): 0.323
- relative viability (NCI-H460; first compound 0.8 µM): 0.342
- relative viability (NCI-H460; first compound 2.53 µM): 0.402
- relative viability (ABC-1; first compound 0.08 µM): 0.788
- relative viability (ABC-1; first compound 0.253 µM): 0.834
- relative viability (ABC-1; first compound 0.8 µM): 0.78
- relative viability (ABC-1; first compound 2.53 µM): 0.763
- relative viability (NCI-H727; first compound 0.08 µM): 0.69
- relative viability (NCI-H727; first compound 0.253 µM): 0.768
- relative viability (NCI-H727; first compound 0.8 µM): 0.711
- relative viability (NCI-H727; first compound 2.53 µM): 0.735
- relative viability (PC-3 [JPC-3]; first compound 0.08 µM): 1.1
- relative viability (PC-3 [JPC-3]; first compound 0.253 µM): 1.08
- relative viability (PC-3 [JPC-3]; first compound 0.8 µM): 1.09
- relative viability (PC-3 [JPC-3]; first compound 2.53 µM): 1.04
- relative viability (NCI-H1355; first compound 0.08 µM): 0.793
- relative viability (NCI-H1355; first compound 0.253 µM): 0.648
- relative viability (NCI-H1355; first compound 0.8 µM): 0.749
- relative viability (NCI-H1355; first compound 2.53 µM): 0.716
- relative viability (NCI-H2347; first compound 0.08 µM): 0.623
- relative viability (NCI-H2347; first compound 0.253 µM): 0.495
- relative viability (NCI-H2347; first compound 0.8 µM): 0.663
- relative viability (NCI-H2347; first compound 2.53 µM): 0.587
- relative viability (SW 1573; first compound 0.08 µM): 0.532
- relative viability (SW 1573; first compound 0.253 µM): 0.406
- relative viability (SW 1573; first compound 0.8 µM): 0.494
- relative viability (SW 1573; first compound 2.53 µM): 0.233
- relative viability (PC-14; first compound 0.08 µM): 0.242
- relative viability (PC-14; first compound 0.253 µM): 0.235
- relative viability (PC-14; first compound 0.8 µM): 0.296
- relative viability (PC-14; first compound 2.53 µM): 0.233
- relative viability (SK-LU-1; first compound 0.08 µM): 0.455
- relative viability (SK-LU-1; first compound 0.253 µM): 0.479
- relative viability (SK-LU-1; first compound 0.8 µM): 0.463
- relative viability (SK-LU-1; first compound 2.53 µM): 0.472
- relative viability (NCI-H441; first compound 0.08 µM): 0.568
- relative viability (NCI-H441; first compound 0.8 µM): 0.536
- relative viability (NCI-H441; first compound 2.53 µM): 0.387
- relative viability (NCI-H647; first compound 0.08 µM): 0.528
- relative viability (NCI-H647; first compound 0.253 µM): 0.558
- relative viability (NCI-H647; first compound 0.8 µM): 0.528
- relative viability (NCI-H647; first compound 2.53 µM): 0.429
